Results as given in patent US20220023258A1, “METHODS OF TREATING CONDITIONS RELATED TO THE S1P1 RECEPTOR” (Arena Pharmaceuticals, Inc., priority 2018, published 2022).
“Also recorded” adds a separate entry of the source. Counter-ions that a name gives are not always drawn.

Key:
[1] = system: patients with ulcerative colitis; assay: Dose-ranging study in ulcerative colitis: safety; conditions: for serious adverse events (SAEs): placebo 11.1%;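 on all read-outs here: Double-blind randomized parallel-group trial versus placebo, with the study drug given orally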
Description: Patients were instructed to take their capsule on an empty stomach (overnight fast of approximately 8 hours) and to avoid eating for approximately 1 hour after dosing.

lymphocytes = assay: Dose-ranging study in ulcerative colitis: lymphocyte counts; type: in vivo, human; conditions: 12 weeks
Description: Exploratory endpoints included change from baseline in lymphocyte counts at Weeks 1, 2, 4, 8, and 12; proportion of patients achieving clinical remission at Week 12; and proportion of patients who achieve clinical response at Week 12.

With `O=C(O)C[C@H]1CCc2c1[nH]c1ccc(OCc3ccc(C4CCCC4)c(C(F)(F)F)c3)cc21` [L-arginine salt of Compound 1] the “% of Patients with Serious TEAE” value ([1]; 1 mg (n = 52)) was “(5.8) %”, the “% of Patients with TEAE Leading to Discontinuation of Study Drug” value ([1]; 1 mg (n = 52)) was “(5.8) %” and the “% of Patients with any TEAE” value ([1]; 1 mg (n = 52)) was “(59.6) %”. For the same compound, the “Number of Deaths of Any Reason” value ([1]; 1 mg (n = 52)) was 0, the “Number of Patients with Serious TEAE” value ([1]; 1 mg (n = 52)) was 3 and the “Number of Patients with TEAE Leading to Discontinuation of Study Drug” value ([1]; 1 mg (n = 52)) was 3. For the same compound, the “Number of Patients with any TEAE” value ([1]; 1 mg (n = 52)) was 31, the “discontinuations from study related to bradycardia or AV block” value ([1]; 1 mg and 2 mg q.d., 12 weeks) was “no discontinuations from study related to bradycardia or AV block” and the “liver function tests (LFTs) compared to placebo” value ([1]; 1 mg and 2 mg q.d., 12 weeks) was “no increases in liver function tests”. For the same compound, the “reports of macular edema or pulmonary function test abnormalities” value ([1]; 1 mg and 2 mg q.d., 12 weeks) was “no reports of macular edema or pulmonary function test abnormalities; also recorded: no reports of macular edema; and no reports of abnormal pulmonary function tests”, the “serious adverse events related to heart rate changes or AV block” value ([1]; 1 mg and 2 mg q.d., 12 weeks) was “No serious adverse events related to heart rate changes or AV block” and the “severe or life-threatening infection” value ([1]; 1 mg and 2 mg q.d., 12 weeks) was “No severe or life-threatening infection occurred”. For the same compound, the tolerability ([1]; 1 mg and 2 mg q.d., 12 weeks) was “well tolerated”, the “serious adverse events (SAEs)” value ([1]; 1 mg q.d.) was 5.8% and the “% of Patients with TEAE Leading to Discontinuation of Study Drug” value ([1]; 2 mg (n = 50)) was “(8.0) %”. The “% of Patients with any TEAE” value ([1]; 2 mg (n = 50)) was “(56.0) %”, the “Number of Deaths of Any Reason” value ([1]; 2 mg (n = 50)) was 0 and the “Number of Patients with Serious TEAE” value ([1]; 2 mg (n = 50)) was 0. The “Number of Patients with TEAE Leading to Discontinuation of Study Drug” value ([1]; 2 mg (n = 50)) was 4, the “Number of Patients with any TEAE” value ([1]; 2 mg (n = 50)) was 28 and the “serious adverse events (SAEs)” value ([1]; 2 mg q.d.) was 0%. The “mean change (decrease) in heart rate, hourly ECGs” value ([1]; Day 1, any time point, both 1 mg and 2 mg groups) was less than 10 bpm, the “mean decrease in heart rate from baseline” value ([1]; after Day 1 through 12 weeks, either dose group (1 mg, 2 mg)) was no more than 6 bpm and the “reduction in lymphocytes relative to placebo” value (lymphocytes; 1 mg q.d.) was 37%. The “reduction in lymphocytes relative to placebo” value (lymphocytes; 2 mg q.d., p<0.001) was 57%.
